According to patent US12539292B2, “BRM targeting compounds and associated methods of use” (Arvinas Operations, Inc., priority 2018, dated 2026):
Where two headings read alike, the source gives them in different places.

Molecular target: T1, BRM (Homo sapiens, UniProt P51531)
T1 construct: In-Cell Western Screen of BRM Degradation in SW1573 Cells; endogenous in cells; host or cells: SW1573
Assay: In-cell Western screen of BRM degradation in SW1573 cells (Dmax and DC50)
Assay type: cell-based
Conditions: BRM degradation, SW1573 cells; for Dmax (%) (% degraded): tested at the top concentration of between 0.3 and 10 μM
Method: In-Cell Western Screen of BRM Degradation in SW1573 Cells
To assess BRM degradation (Dmax and DC50), cells were seeded at 8000/well in 96-well black/clear-bottom plates in 180 μL DMEM growth media (containing 1% pen-strep, 1% HEPES and 10% FBS) per well. Plates were incubated overnight to allow adhesion. The next morning cells were treated by adding 20 μL of 10× compound (1% DMSO) to appropriate wells and returned to incubator for overnight (18-20 hours). The final DMSO concentration was 0.1%.
For processing, the plates were removed from incubator, the media was removed, and immediately 200 μL of cold (4° C.) DPBS was added to all wells. DPBS was then removed, and 50 μL of 4% paraformaldehyde (PFA) in DPBS (4° C.) was added to all wells, and the plates were incubated at room temperature for 20 minutes. PFA was then removed, and 200 μL of TBS-T containing 0.5% Triton X-100 was added to all wells, and the plates were incubated at room temperature for 30 minutes. TBS-T containing 0.5% Triton X-100 was then removed, and 50 μL of Li-Cor blocking solution was added, and the plates were incubated at room temperature for a minimum of one hour.
The next day plates were washed three times with TBS-T, 200 μL per well. Fifty (50) μL of secondary antibody cocktail in LI-COR blocking solution (anti-rabbit_800 nm and anti-mouse_680 nm) was added to all wells (diluted 1:5000). The plates were incubated at room temperature for at least one hour while protected from light. The plates were washed twice with TBS-T, 200 μL per well.
To read each plate TBS-T was removed, and each plate was inverted tapped on a paper towel. The plates were read on the LI-COR Odyssey with default intensity settings of 5.0 for both channels. LI-COR images were analyzed with the in-cell Western feature of Image Studio Lite.

[1] = Table 2D, read-out: **Dmax (%) (% degraded)
[2] = when tested at the top concentration of between 0.3 and 10 μM, read-out: Dmax (%) (% degraded)

T1 sequence (P51531 whole entry): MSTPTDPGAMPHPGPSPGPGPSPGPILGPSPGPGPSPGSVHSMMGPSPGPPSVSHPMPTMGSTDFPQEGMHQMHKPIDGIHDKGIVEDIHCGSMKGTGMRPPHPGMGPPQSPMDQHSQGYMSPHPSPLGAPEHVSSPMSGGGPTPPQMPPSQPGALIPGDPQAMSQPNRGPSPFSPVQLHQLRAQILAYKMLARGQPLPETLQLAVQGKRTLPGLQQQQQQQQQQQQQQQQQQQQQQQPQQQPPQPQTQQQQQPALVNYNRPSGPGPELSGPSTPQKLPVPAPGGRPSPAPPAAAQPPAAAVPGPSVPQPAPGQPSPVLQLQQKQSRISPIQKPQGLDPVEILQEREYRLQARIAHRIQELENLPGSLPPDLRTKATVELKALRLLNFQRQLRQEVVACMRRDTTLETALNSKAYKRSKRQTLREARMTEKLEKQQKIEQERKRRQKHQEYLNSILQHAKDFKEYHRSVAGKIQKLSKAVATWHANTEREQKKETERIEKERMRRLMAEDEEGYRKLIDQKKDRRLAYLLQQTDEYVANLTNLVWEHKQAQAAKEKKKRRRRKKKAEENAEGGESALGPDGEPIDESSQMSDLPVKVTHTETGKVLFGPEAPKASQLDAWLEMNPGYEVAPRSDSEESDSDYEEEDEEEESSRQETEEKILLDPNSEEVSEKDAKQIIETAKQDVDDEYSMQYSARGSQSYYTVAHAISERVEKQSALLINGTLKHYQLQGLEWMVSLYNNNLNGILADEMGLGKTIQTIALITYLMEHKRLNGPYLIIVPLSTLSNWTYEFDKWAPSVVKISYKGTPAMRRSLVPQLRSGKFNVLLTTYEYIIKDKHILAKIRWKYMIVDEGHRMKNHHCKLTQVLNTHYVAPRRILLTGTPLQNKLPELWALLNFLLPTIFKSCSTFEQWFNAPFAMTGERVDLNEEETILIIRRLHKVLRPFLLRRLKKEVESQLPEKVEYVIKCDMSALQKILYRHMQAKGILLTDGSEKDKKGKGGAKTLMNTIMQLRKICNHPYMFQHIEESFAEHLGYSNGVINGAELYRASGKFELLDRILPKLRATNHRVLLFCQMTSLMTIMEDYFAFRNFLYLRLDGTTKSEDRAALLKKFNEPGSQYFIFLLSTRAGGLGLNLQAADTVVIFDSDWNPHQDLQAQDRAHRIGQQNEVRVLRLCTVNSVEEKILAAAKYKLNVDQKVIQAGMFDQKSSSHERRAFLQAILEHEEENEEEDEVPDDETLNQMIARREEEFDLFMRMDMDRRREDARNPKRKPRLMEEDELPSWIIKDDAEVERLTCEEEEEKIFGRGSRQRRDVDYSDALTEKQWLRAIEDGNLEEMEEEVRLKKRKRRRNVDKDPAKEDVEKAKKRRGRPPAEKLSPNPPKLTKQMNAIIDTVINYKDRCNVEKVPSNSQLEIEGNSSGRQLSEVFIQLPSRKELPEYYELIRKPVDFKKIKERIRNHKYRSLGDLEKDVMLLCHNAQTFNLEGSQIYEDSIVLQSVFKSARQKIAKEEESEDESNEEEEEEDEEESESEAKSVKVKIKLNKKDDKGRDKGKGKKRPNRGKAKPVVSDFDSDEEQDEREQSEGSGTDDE

| DC50 (read-out: DC50) [nM] | Compound | Dmax (read-out: Dmax (% degraded)) [%] | also measured |
| --- | --- | --- | --- |
| 2.5 to 10 | Cc1nccn1-c1ccc([C@H](C)NC(=O)[C@@H]2C[C@@H](O)CN2C(=O)[C@H](c2cc(N3CCC(CN4CCC(O[C@H]5C[C@H](C#C[C@@H](C)n6cc(-c7cc(-c8ccccc8O)nnc7N)cn6)C5)CC4)CC3)no2)C(C)C)cc1 (single isomer, unassigned) [compound 637] | > 75 |  |
| < 2.5 | Cc1nccn1-c1ccc([C@H](C)NC(=O)[C@@H]2C[C@@H](O)CN2C(=O)[C@@H](c2cc(N3CCC(CN4CCC(O[C@H]5C[C@H](C#C[C@@H](C)n6cc(-c7cc(-c8ccccc8O)nnc7N)cn6)C5)CC4)CC3)no2)C(C)C)cc1 (single isomer, unassigned) [compound 638] | > 75 |  |
| > 30 | CC(C)[C@H](C(=O)N1C[C@H](O)C[C@H]1C(=O)N[C@@H](C)c1ccc(C#N)cc1)c1cc(N2CCC(CN3CCC(O[C@H]4C[C@H](C#C[C@@H](C)n5cc(-c6cc(-c7ccccc7O)nnc6N)cn5)C4)CC3)CC2)no1 (single isomer, unassigned) [compound 697] |  |  |
| < 2.5 | CC(C)[C@@H](C(=O)N1C[C@H](O)C[C@H]1C(=O)N[C@@H](C)c1ccc(C#N)cc1)c1cc(N2CCC(CN3CCC(O[C@H]4C[C@H](C#C[C@@H](C)n5cc(-c6cc(-c7ccccc7O)nnc6N)cn5)C4)CC3)CC2)no1 (single isomer, unassigned) [compound 698] | > 75 |  |
| > 30 | Cc1ncsc1-c1ccc([C@H](C)NC(=O)[C@@H]2C[C@@H](O)CN2C(=O)C(c2cc(OCCn3cc(C(C)n4cc(-c5cc(-c6ccccc6O)nnc5N)cn4)ccc3=O)no2)C(C)C)cc1 (stereo in doubt) [compound 162, (2S,4R)-1-((2R)-2-(3-(2-(5-(1-(4-(3-amino-6-(2-hydroxyphenyl)pyridazin-4-yl)-1H-pyrazol-1-yl)ethyl)-2-oxopyridin-1(2H)-yl)ethoxy)isoxazol-5-yl)-3-methylbutanoyl)-4-hydroxy-N-((S)-1-(4-(4-methylthiazol-5-yl)phenyl)ethyl)pyrrolidine-2-carboxamide] |  | Dmax (%) (% degraded): A (A > 75) |

More lines, now with the values behind:

| Compound | DC50 (read-out: DC50) [nM] | Dmax (read-out: Dmax (% degraded)) [%] | also measured |
| --- | --- | --- | --- |
| Cc1ncsc1-c1ccc([C@H](C)NC(=O)[C@@H]2C[C@@H](O)CN2C(=O)[C@H](c2cc(N3CCC(OC4CCN(CC5CC(CN6CCC([C@@H](C)n7cc(-c8cc(-c9ccccc9O)nnc8N)cn7)CC6)C5)CC4)CC3)no2)C(C)C)cc1 (single isomer, unassigned) [compound 595] |  |  | Dmax [1]: > 75%; DC50 (Table 2D, read-out: *DC50): < 2.5 nM |
| Cc1ncsc1-c1ccc([C@H](C)NC(=O)[C@@H]2C[C@@H](O)CN2C(=O)[C@@H](c2cc(N3CCC(OC4CCN(CC5CC(CN6CCC([C@@H](C)n7cc(-c8cc(-c9ccccc9O)nnc8N)cn7)CC6)C5)CC4)CC3)no2)C(C)C)cc1 (single isomer, unassigned) [compound 596] |  |  | Dmax [1]: > 75%; DC50 (Table 2D, read-out: *DC50): < 2.5 nM |
| Cc1ncsc1-c1ccc([C@H](C)NC(=O)[C@@H]2C[C@@H](O)CN2C(=O)[C@@H](c2cc(OCCN3CC[C@@H](O[C@H]4C[C@H](Oc5cc(N6C7CCC6CN(c6cc(-c8ccccc8O)nnc6N)C7)ccn5)C4)C[C@H]3C)no2)C(C)C)cc1 (single isomer, unassigned) [compound 634] | < 2.5 | > 75 |  |
| Cc1ncsc1-c1ccc([C@H](C)NC(=O)[C@@H]2C[C@@H](O)CN2C(=O)[C@@H](c2cc(OCCN3CC[C@H](O[C@H]4C[C@H](Oc5cc(N6C7CCC6CN(c6cc(-c8ccccc8O)nnc6N)C7)ccn5)C4)C[C@@H]3C)no2)C(C)C)cc1 (single isomer, unassigned) [compound 636] | < 2.5 | > 75 |  |
| Cc1ncsc1-c1ccc([C@H](C)NC(=O)[C@@H]2C[C@@H](O)CN2C(=O)[C@@H](c2cc(N3CCC[C@H](CN4CCC(O[C@H]5C[C@H](Oc6cc(N7C8CCC7CN(c7cc(-c9ccccc9O)nnc7N)C8)ccn6)C5)CC4)C3)no2)C(C)C)cc1 (single isomer, unassigned) [compound 656] | < 2.5 | > 75 |  |
| Cc1ncsc1-c1ccc([C@H](C)NC(=O)[C@@H]2C[C@@H](O)CN2C(=O)[C@@H](c2cc(N3CCC[C@@H](CN4CCC(O[C@H]5C[C@H](Oc6cc(N7C8CCC7CN(c7cc(-c9ccccc9O)nnc7N)C8)ccn6)C5)CC4)C3)no2)C(C)C)cc1 (single isomer, unassigned) [compound 657] | < 2.5 | > 75 |  |
| Cc1ncsc1-c1ccc([C@H](C)NC(=O)[C@@H]2C[C@@H](O)CN2C(=O)C(C(C)C)n2cc(OCCN3CCN(CCOc4cc(N5C6CCC5CN(c5cc(-c7ccccc7O)nnc5N)C6)ccn4)CC3)cn2)cc1 (stereo in doubt) [compound 38, (2S,4R)-1-[(2R)-2-[4-[2-(4-[2-[(4-[3-[3-amino-6-(2-hydroxyphenyl)pyridazin-4-yl]-3,8-diazabicyclo[3.2.1]octan-8-yl]pyridin-2-yl)oxy]ethyl]piperazin-1-yl)ethoxy]-1H-pyrazol-1-yl]-3-methylbutanoyl]-4-hydroxy-N-[(1S)-1-[4-(4-methyl-1,3-thiazol-5-yl)phenyl]ethyl]pyrrolidine-2-carboxamide] | 10 to 30 |  | Dmax [2]: > 75% |
| Cc1ncsc1-c1ccc([C@H](C)NC(=O)[C@@H]2C[C@@H](O)CN2C(=O)C(C(C)C)n2cc(OCCN3CCN(CCOc4cc(N5C6CCC5CN(c5cc(-c7ccccc7O)nnc5N)C6)ccn4)CC3)cn2)cc1 (stereo in doubt) [compound 39, (2S,4R)-1-[(2S)-2-[4-[2-(4-[2-[(4-[3-[3-amino-6-(2-hydroxyphenyl)pyridazin-4-yl]-3,8-diazabicyclo[3.2.1]octan-8-yl]pyridin-2-yl)oxy]ethyl]piperazin-1-yl)ethoxy]-1H-pyrazol-1-yl]-3-methylbutanoyl]-4-hydroxy-N-[(1S)-1-[4-(4-methyl-1,3-thiazol-5-yl)phenyl]ethyl]pyrrolidine-2-carboxamide] | > 30 |  | Dmax [2]: > 75% |
| Cc1cnn(C)c1-c1ccc([C@H](C)NC(=O)[C@@H]2C[C@@H](O)CN2C(=O)C(c2cc(OCCN3CCN(CCOc4cc(N5C6CCC5CN(c5cc(-c7ccccc7O)nnc5N)C6)ccn4)CC3)no2)C(C)C)cc1 (stereo in doubt) [compound 194, (2S,4R)-1-((2R)-2-(3-(2-(4-(2-((4-(3-(3-amino-6-(2-hydroxyphenyl)pyridazin-4-yl)-3,8-diazabicyclo[3.2.1]octan-8-yl)pyridin-2-yl)oxy)ethyl)piperazin-1-yl)ethoxy)isoxazol-5-yl)-3-methylbutanoyl)-N-((S)-1-(4-(1,4-dimethyl-1H-pyrazol-5-yl)phenyl)ethyl)-4-hydroxypyrrolidine-2-carboxamide] | < 2.5 |  | Dmax (%) (% degraded): A (A > 75) |
| Cc1ncsc1-c1ccc(CNC(=O)[C@@H]2C[C@@H](O)CN2C(=O)[C@@H](NC(=O)COCCOCCOCCn2cc(-c3cc(-c4ccccc4O)nnc3N)cn2)C(C)(C)C)cc1 [compound 1, (2S,4R)-1-((S)-14-(4-(3-amino-6-(2-hydroxyphenyl)pyridazin-4-yl)-1H-pyrazol-1-yl)-2-(tert-butyl)-4-oxo-6,9,12-trioxa-3-azatetradecanoyl)-4-hydroxy-N-(4-(4-methylthiazol-5-yl)benzyl)pyrrolidine-2-carboxamide] | > 30 |  | Dmax [2]: > 75% |
| Cc1ncsc1-c1ccc(CNC(=O)[C@@H]2C[C@@H](O)CN2C(=O)[C@@H](NC(=O)COCCOCCOCCOCCOCCOCCn2cc(-c3cc(-c4ccccc4O)nnc3N)cn2)C(C)(C)C)cc1 [compound 3, (2S,4R)-1-((S)-23-(4-(3-amino-6-(2-hydroxyphenyl)pyridazin-4-yl)-1H-pyrazol-1-yl)-2-(tert-butyl)-4-oxo-6,9,12,15,18,21-hexaoxa-3-azatricosanoyl)-4-hydroxy-N-(4-(4-methylthiazol-5-yl)benzyl)pyrrolidine-2-carboxamide] | > 30 |  | Dmax [2]: > 75% |
| Cc1ncsc1-c1ccc(CNC(=O)[C@@H]2C[C@@H](O)CN2C(=O)[C@@H](NC(=O)COCCOCCOCCOCCOCCn2cc(-c3cc(-c4ccccc4O)nnc3N)cn2)C(C)(C)C)cc1 [compound 4, (2S,4R)-1-((S)-20-(4-(3-amino-6-(2-hydroxyphenyl)pyridazin-4-yl)-1H-pyrazol-1-yl)-2-(tert-butyl)-4-oxo-6,9,12,15,18-pentaoxa-3-azaicosanoyl)-4-hydroxy-N-(4-(4-methylthiazol-5-yl)benzyl)pyrrolidine-2-carboxamide] | > 30 |  | Dmax [2]: > 75% |
